Experimental data: PMC7495481, “Sequence specificity analysis of the SETD2 protein lysine methyltransferase and discovery of a SETD2 super-substrate” (Communications Biology, 2020)
“And” between values parts separate entries of the source, which are not always exact repeats. Equal values may be shown once.

T1: SETD2 (Homo sapiens, UniProt Q9BYW2)
T1 construct: SETD2 catalytic SET domain (amino acids 1347–1711, UniProt No: Q9BYW2); made in house; host or cells: E. coli
T1 sequence (Q9BYW2 1347-1711): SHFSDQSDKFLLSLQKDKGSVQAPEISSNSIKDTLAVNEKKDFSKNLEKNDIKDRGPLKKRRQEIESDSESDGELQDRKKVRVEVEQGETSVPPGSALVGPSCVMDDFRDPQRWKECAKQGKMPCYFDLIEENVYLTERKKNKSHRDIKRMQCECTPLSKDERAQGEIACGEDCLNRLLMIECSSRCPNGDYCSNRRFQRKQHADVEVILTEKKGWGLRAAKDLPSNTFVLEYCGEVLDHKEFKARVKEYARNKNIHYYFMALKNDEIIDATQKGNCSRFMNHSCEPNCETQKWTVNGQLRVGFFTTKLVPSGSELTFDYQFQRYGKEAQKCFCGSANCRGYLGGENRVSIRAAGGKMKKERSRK

T2: His6-tagged catalytic SET domain of SETD2 (amino acids 1347–1711) (human, UniProt Q9BYW2 1347-1711)
T2 construct: also called SET-domain containing protein 2; KMT3A; source: E. coli, purified (Ni-NTA beads)
T2 sequence (looked up): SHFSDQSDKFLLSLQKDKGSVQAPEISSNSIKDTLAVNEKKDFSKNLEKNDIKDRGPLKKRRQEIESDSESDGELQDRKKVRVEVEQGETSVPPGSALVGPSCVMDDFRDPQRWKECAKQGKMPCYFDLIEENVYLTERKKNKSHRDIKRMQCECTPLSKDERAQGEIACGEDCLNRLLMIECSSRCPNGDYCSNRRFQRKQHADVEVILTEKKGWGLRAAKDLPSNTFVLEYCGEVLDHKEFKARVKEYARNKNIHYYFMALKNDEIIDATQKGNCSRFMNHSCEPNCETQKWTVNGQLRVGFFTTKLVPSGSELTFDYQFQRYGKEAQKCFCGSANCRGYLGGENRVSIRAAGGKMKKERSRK


Key:
[1] = target: T1, SETD2; test: Peptide SPOT array methylation of H3K36 (29–43) variants, super-substrate design (Fig. 2a); assay type: biochemical; conditions: SPOT array; 0.76 µM radioactive AdoMet, 3–6 µM SETD2, 60 min, pH 9; autoradiography
Text: Based on these observations, we aimed to explore, if better substrates than H3K36 can be designed for SETD2. We synthesized peptide SPOT arrays including H3K36 (29–43) as a positive control and the H3K36A mutant as a negative control, in which up to 5 combined mutations were systematically introduced that converted the original H3K36 residues into residues that are more favored (Fig. 2a and Supplementary Table 1). This peptide array was methylated by SETD2 as described above and the methylation signal was captured by autoradiography.
Fig. 2 Design of an optimized SETD2 peptide substrate and analysis of its methylation. a Variants of the H3K36 (29–43) peptide containing up to five mutations (Supplementary Table 1) were synthesized on a cellulose membrane and methylated by SETD2. The signal of the transferred radioactive methyl groups was detected by autoradiography. Spots A1 and B15 contain the H3K36 sequence, A2 and B16 the H3K36A peptide. Two films with different exposure times are shown to visualize weaker methylated spots as well. b Comparison of the methylation of purified super-substrate (ssK36) and the H3K36 peptides. […] Methylation reactions were conducted using 20 µM peptide and 6 µM enzyme. The lower panels display autoradiography films after different exposure times allowing to compare the methylation levels of the different samples. For comparison, different dilutions of the methylated ssK36 were loaded as indicated. c Time course of ssK36 peptide methylation determined under single turnover conditions using 5 µM substrate and 6 µM enzyme. […] The gels with the radioactive ssK36 (5 µl loaded per well) and H3K36 peptides (20 µl loaded per well) were exposed together to the same x-ray film. […] An enlargement of the H3K36 data with adjusted y-axis scale is shown in Supplementary Fig. 3d.
(§1) Peptide arrays containing fifteen amino acid long peptides were synthesized using the SPOT synthesis method[48] with an Autospot peptide array synthesizer (Intavis AG, Köln, Germany). After synthesis, the obtained membranes were pre-incubated in methylation buffer (20 mM Tris/HCl pH 9, 0.01% Triton X-100, 10 mM DTT, 1.5 mM MgCl2) for 5 min on a shaker. Thereafter, the membranes were incubated in methylation buffer supplemented with 0.76 µM radioactively labeled AdoMet (PerkinElmer) and 3–6 µM SETD2 enzyme for 60 min on a shaker. After methylation, the membranes were washed 5 times for 5 min in wash buffer (100 mM NH4HCO3, 1% SDS) and incubated in amplify NAMP100V (GE Healthcare) for 5 min. This was followed by the exposure of the membranes to a hyperfilm^TM high performance autoradiography (GE Healthcare) film at −80 °C in the dark. The films were developed with an Optimax Typ TR machine after different exposue times. For quantification the signal intensities were measured with the Phoretix^TM software and analyzed with Microsoft Excel.

[2] = target: T1, SETD2; test: Peptide SPOT array methylation of reported SETD2 substrates; assay type: biochemical; conditions: SPOT array on cellulose membrane; 0.76 µM radioactive AdoMet, 3–6 µM SETD2, 60 min, pH 9; autoradiography
Procedure: Next, the SETD2 activity was tested on peptide SPOT arrays containing fifteen amino acid long peptides immobilized on a cellulose membrane. As reported SETD2 substrates, the H3K36 (29–43), α -tubulin (33–47) and STAT1 (518–532) peptides (with the target lysine centered in each case) were included, and peptides with the corresponding target lysine mutated to alanine were used as negative controls. The peptide array was incubated in methylation buffer supplemented with SETD2 and radioactively labeled AdoMet. […] Methylation of the previously reported non-histone substrates α -tubulin and STAT1 was not detectable at the peptide level and, therefore, they were excluded from further investigation.
as §1
Supplementary Fig. 1: SETD2 protein and catalytic activity. a Purified His6-tagged SETD2 SET domain (1347-1711) was separated on an SDS-gel and […]
stained with Coomassie BB. […]
tubulin (33-47), STAT1 (518-532) and their corresponding target lysine to alanine mutant peptides were synthesized on a cellulose membrane. The membrane was incubated in methylation buffer supplemented with radioactively labeled AdoMet and SETD2. The signal of the transferred radioactive methyl groups was visualized by autoradiography.

[3] = target: T1, SETD2; test: Peptide SPOT array target lysine methylation of selected non-histone peptides (Fig. 3b); assay type: biochemical; conditions: Exp1–Exp3, 3–6 µM SETD2, 0.76 µM AdoMet, 60 min, pH 9
Text: However, we could identify 166 possible targets, which contain partial matches to the substrate specificity profile. The possible methylation of these 166 putative substrates was investigated at the peptide level. For this, fifteen amino acid long peptides containing the sequence of the non-histone targets surrounding the predicted target lysine were synthesized on a membrane. The H3K36 (29–43) peptide (spots A1, I9), the super-substrate peptide (spots A3, I11) and the corresponding lysine to alanine mutation peptides (spot A2, I10, and A4, I12) were included as positive and negative controls (Fig. 3a, Supplementary Fig. 4 and Supplementary Table 2). The methylation reactions and the detection of the methylation signals were performed in duplicates as described above. We observed that all of the investigated peptides were more weakly methylated than the super-substrate peptide. […] In the next step, 20 of the peptides were selected for further investigation based on the methylation intensity and the known functions of the proteins to confirm the methylation at the predicted target site. The peptides were synthesized on another membrane, now including the target lysine to alanine mutation control peptides in each case. The methylation reactions and the detection of the signal were conducted as described above (Fig. 3b, Supplementary Fig. 5 and Supplementary Table 3).
Fig. 3 Identification of non-histone substrates of SETD2. a Candidate non-histone peptide substrates were identified in the human proteome based on the SETD2 super-substrate specificity profile. The peptides were synthesized on a peptide SPOT array (Supplementary Table 2) and methylated by SETD2. As controls, the H3K36, H3K36A, ssK36 and ssK36A peptides were included on spots A1–A4 and I9–I12. The autoradiography image is an example of the obtained results. […] The quantification of the data of two experiments is shown in Supplementary Fig. 4. b Analysis of target lysine methylation of selected non-histone substrate peptides. Peptide SPOT arrays were synthesized containing the non-histone peptide substrates identified in panel A in addition to the lysine to alanine mutations presented on the array as every second spot (Supplementary Table 3). As controls, the H3K36, H3K36A, ssK36, and ssK36A mutant peptides were included on spot A1–A4 and C5–C8. The autoradiography image is an example of the obtained results. The quantification of the data of three experiments is shown in Supplementary Fig. 5. Peptides selected for furhter analysis are highlighted by blue circles. c Protein methylation of FBN1 and confirmation of the target lysine methylation. Both wild type (WT) and mutant (K666R) FBN1 were purified and equal amounts were methylated by SETD2 (2 µM). […] The size of FBN1 is indicated by an asterisk.
as §1

[4] = target: T2, His6-tagged catalytic SET domain of …; test: enzyme inhibition kinetics (competitive inhibition of peptide methylation); 20 µM ssK36 (29–43) substrate peptide, 6 µM SETD2, inhibitor peptide 0 to 320 µM, methylation buffer (20 mM Tris/HCl pH 9, 0.01% Triton X-100, 10 mM DTT, 1.5 mM MgCl2) with 0.76 µM radioactively labeled AdoMet, 25 °C, Tricine-SDS-PAGE and autoradiography; global fit to a competitive inhibition steady-state model; conditions: both partners purified

Molecule | Relative methylation signal, Average [3] | other results
APAFGGVKKPHRYRP [T32F] | – | peptide array methylation of H3K36 variants (in words) [1]: stepwise improvement of activity with increasing number of mutations
APATGGVAKPHRYRP [K36A, H3K36A mutant peptide, negative control, reference compound] | 0.2341 and 0.1607 | peptide spot methylation signal [2]: did not show a detectable peptide methylation signal
APATGGVKKPHRYRP [H3K36, H3K36 (29–43) peptide on SPOT array, reference compound] | 0.4318 and 0.3786 | peptide spot methylation signal [2]: detectable methylation
APRFGGVKKPHRYRP [A31R/T32F] | – | peptide array methylation of H3K36 variants (in words) [1]: stepwise improvement of activity with increasing number of mutations
APRFGGVKRPHRYRP [A31R/T32F/K37R] | – | peptide array methylation of H3K36 variants (in words) [1]: stepwise improvement of activity with increasing number of mutations
DGQMPSDKTIGGGDD [α-tubulin (33–47), reported SETD2 substrate peptide, K40] | – | peptide spot methylation signal [2]: did not show a detectable peptide methylation signal
RRGIGYLKLICFLIP [ANKAR, Ankyrin and armadillo repeat-containing protein peptide, target lysine 317] | 0.4211 | –
STCYGGIAKGVCVRP [FBN2 K to A, target lysine to alanine control] | 0.3693 | –
STCYGGIKKGVCVRP [FBN2, Fibrillin-2 peptide, target lysine 711] | 0.6873 | –
STCYGGYARGQCIKP [FBN1 K to A, target lysine to alanine control] | 0.2279 | –
TPPLGGYAVTAKCFG [HDAC9 K to A, target lysine to alanine control] | 0.4627 | –
TPPLGGYKVTAKCFG [HDAC9, Histone deacetylase 9 peptide, target lysine 927] | 0.7696 | –
YCLIGGVAMTRFICK [DLEC1 K to A, target lysine to alanine control] | 0.4812 | –
YCLIGGVKMTRFICK [DLEC1, Deleted in lung and esophageal cancer protein 1 peptide, target lysine 494] | 0.8047 | –
YGPFGYIANPYNIFD [CAC1G K to A, target lysine to alanine control] | 0.03839 | –
YGPFGYIKNPYNIFD [CAC1G, Voltage-dependent T-type calcium channel subunit alpha-1G peptide, target lysine 804] | 0.9453 | –
KSAPATGGVMKPHRYRP (peptide, UniProt P68431 28-44, looked up, histone H3 residues 27–43 with K36M (the oncohistone mutation); source: synthetic peptide, bought: Intavis AG (Köln)) [H3K36M (27–43) peptide] | – | Ki [4]: 447 µM
APRFGGVMRPNRYRP (histone H3 residues 29–43 (UniProt P68431 printed for the parent H3K36 peptide) with the four super-substrate exchanges and K36M; source: synthetic peptide, bought: Innovative Peptide Solutions (Berlin)) [ssK36M peptide (29–43), super-substrate peptide with the target lysine changed to methionine] | – | Ki [4]: 128 µM
